In patent US7838218B2, “Light emitting probes” (priority 2003, dated 2010):

Target: T1, rabbit serum albumin (RSA) (Oryctolagus cuniculus, UniProt P49065)
T1 construct: purchased Sigma (Sigma-Aldrich Chemical Co.)
Test: Fluorescence emission of probes with rabbit serum albumin as binder
Assay type: binding
Conditions: pyrene butyric acid excited at 345 nm, FITC at 490 nm; PBS
Description: Fluorescence measurements were made on a Hitachi F-2500 fluorescence spectrophotometer with a 1 cm path length cuvette. Spectra were measured at a rate of 1500 nm/min. Excitation wavelength of 345 nm was used for pyrene and 490 nm for FITC.
Lifetimes were measured on modified IBH machine.
Proteins with hydrophobic pockets could be used as binders. […] The binder is not restricted to proteins. […] The excitation wavelength was 345 nm.

T1 sequence (P49065 25-608): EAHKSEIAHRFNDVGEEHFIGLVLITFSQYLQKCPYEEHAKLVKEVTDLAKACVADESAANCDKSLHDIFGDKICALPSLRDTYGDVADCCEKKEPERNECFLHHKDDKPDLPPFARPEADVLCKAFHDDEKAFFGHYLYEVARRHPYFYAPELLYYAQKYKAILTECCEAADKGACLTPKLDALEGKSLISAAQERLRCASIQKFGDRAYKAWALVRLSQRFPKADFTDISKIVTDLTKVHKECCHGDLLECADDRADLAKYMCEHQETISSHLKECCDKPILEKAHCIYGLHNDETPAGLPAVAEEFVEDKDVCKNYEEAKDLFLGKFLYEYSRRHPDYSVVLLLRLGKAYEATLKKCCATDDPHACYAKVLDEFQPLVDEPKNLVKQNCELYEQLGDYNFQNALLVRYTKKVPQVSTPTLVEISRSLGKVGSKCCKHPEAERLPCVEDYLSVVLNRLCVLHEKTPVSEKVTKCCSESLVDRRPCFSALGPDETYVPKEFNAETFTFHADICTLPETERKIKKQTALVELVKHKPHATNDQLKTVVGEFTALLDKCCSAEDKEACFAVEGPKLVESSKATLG

O=C1OC2(c3ccc(O)cc3Oc3cc(O)ccc32)c2ccc(N=C=S)cc21 [FITC, fluorescein isothiocynate]
effect of RSA on own emission spectrum of the free fluorophore: appears not to change

c1cc2ccc3cccc4ccc(c1)c2c34 [pyrene butyric acid]
effect of RSA on own emission spectrum of the free fluorophore: increasing the fluorescence intensity
